Laboratory results: patent publication US7235548B2, “Compounds and their use as positive AMPA receptor modulators” (NeuroSearch A/S, priority 1998, dated 2007)

Legend:
[1] = test system: AMPA receptor; assay: Voltage clamp (whole cell patch clamp), current induced by AMPA in cultured mouse neocortical neurons; format: cell-based; conditions: for reversibility of the potentiation: after wash out of the compound; for potentiation of the current induced by application of 30 μM AMPA: holding voltage −60 mV
Method: Experiments were performed in voltage clamp using conventional whole cell patch clamp methods (Hamill et al., 1981), essentially as described previously (Mathiesen et al., 1998). The following salt solutions were used (mM): NaCl (140), KCl (4), CaCl2 (2), MgCl2 (1), Sucrose (30), Tetrodotoxin (0.0003), Bicuculline Methiodide (0.005) and HEPES (10, pH 7.4). Intracellular solution (mM): CsCl (120), CsF (20), MgCl2 (2), EGTA (10), HEPES (10, pH=7.2).
Mouse neocortical neurons were cultured essentially as described by Drejer et al. (1987). Briefly, the forebrains from embryonic (E17) NMRI mice were removed under sterile conditions. The tissue was chopped in 0.4 mm cubes and the triturated with trypsin (12.5 μg/ml) and DNAse (2.5 μg/ml), 15 min, 37° C. The cells were suspended at a concentration of 1×10^6 cells/ml in a slightly modified DMEM which contained horse serum (10% (v/v)), penicillin (333 U/ml), paraaminobenzoic acid (1 mg/ml), L-glutamine (0.5 mM), insulin (0.08 U/ml) and KCl (23.8 mM). The cell suspension was subsequently inoculated into poly-L-lysine coated 35 mm Petri dishes (2 ml/dish). Glass coverslips (3.5 mm) were placed in the dishes before coating. After 24 hr in culture, the medium was replaced by freshly made medium containing 1% N2 supplement instead of serum.
The cells were kept in culture for 7–14 days at 37° C. (5% CO2/95% O2) before experiments were carried out.
Electronics, programs and data acquisition: The amplifier used was the EPC-9 (HEKA-electronics, Lambrect, Germany) run by a Power Macintosh G3 computer via an ITC-16 interface. Experimental conditions were set with the Pulse-software accompanying the amplifier. Data were low pass filtered and sampled directly to hard-disk at a rate of 3 times the cut-off frequency.
Pipettes and electrodes: Pipettes were pulled from borosilicate glass (Modulohm, Copenhagen, Denmark) using a horizontal electrode puller (Zeitz-Instrumente, Augsburg, Germany). The pipette resistances were 1.7–2.4 MW in the salt solutions used in these experiments. The pipette electrode was a chloridized silver wire, and the reference was a silverchloride pellet electrode (In Vivo Metric, Healdsburg, USA) fixed to the experimental chamber. The electrodes were zeroed with the open pipette in the bath just prior to sealing.
Experimental procedure: Coverslips were transferred to a […] experimental chamber mounted on the stage of an inverted microscope (IMT-2, Olympus) supplied with Nomarski optics. The neurons were continuously superfused with extracellular saline at a rate of 2.5 ml/min. After giga-seal formation (1–5 GW, success-rate≈90%) the whole cell configuration was attained by suction.
The cells were held at a holding voltage of −60 mV and at the start of each experiment the current was continuously measured for at least 30 sec to ensure a stable leak current. AMPA-containing solutions were delivered to the chamber through a custom-made gravity-driven flowpipe, the tip of which was placed approximately 50 μm from the cell. Application was triggered when the tubing connected to the flow pipe was compressed by a valve controlled by the Pulse-software. AMPA (30 μM) was applied for 1 sec every 45 sec. After obtainment of responses of a repeatable amplitude the compound to be tested was included in both the chamber and in the AMPA-containing solution. The compound was present until responses of a new repeatable was obtained.
The sample interval in all experiments was 310 μsec.
All experiments were performed at room temperature (20–25° C.).

[2] = test system: AMPA receptors; assay: AMPA evoked single neuron spike activity in rat hippocampus (iontophoretic application of AMPA), in vivo; conditions: 10 mg kg^−1 i.v.
Text: Evaluation of the in vivo effects of positive AMPA modulators (PAMs) on the AMPA evoked spike activity in rat hippocampus. Hippocampal single neuron spike activity is strongly influenced by excitatory input, and iontophoretic application of AMPA induces spike activity in vivo in a dose-dependent manner ([…] et al. 1998). […] PAMs potentate AMPA receptor activation in vitro, and if this mechanism also operates in vivo, the i.v. injection of an PAM should enhance AMPA evoked spike activity. Thus, the aim of this study was to test the in vivo effect of a group of in vitro active PAMs. This have been done by studying their ability to enhances AMPA evoked spike activity after i.v. administration. Experiments were performed on male Wistar rats (M & B, Denmark) weighing 280-380 g, housed in two per cage with free access to food and water. […] Additional anaesthetic was given i.v. if the rat responded to a pinch of the back foot. The trachea was cannulated and the rats were placed in a stereotaxic frame and ventilated by a rodent ventilator (Ugo Basile, Comerio-Varese, Italy). Core body temperature was maintained at 37.5° C. by a DC heating pad. The left and dorsal part of the parietal bone was removed by craniotomy and the dura was withdrawn exposing the pia mater and underlying brain, covered with 0.9% NaCl. AMPA (Sigma, USA) was dissolved at 10 mM in 0.2 M NaCl. NMDA (Sigma, USA) was dissolved at 100 mM in 100 mM NaCl. Both solutions were adjusted to pH 7.5-8.0 with NaOH. COMPOUND 61 was dissolved in 200 mM CH3SO3^- Na^+ at a contration of 10 mM for iontophoretic application ([…]) and in isotonic glucose (278 mM) for i.v. administration. Cyclothiazide, COMPOUND 63, COMPOUND 56, COMPOUND 115 and COMPOUND 114 were all dissolved at in 5% chremophore solution at a concentration of 5 mg ml^-1. Evoked neuronal spike activity was analyzed on-line by a computer, saving single spikes and time of event. Neuronal spike activity (number of action potentials s^-1) was monitored on a pulse rate histogram together with indicators for AMPA, COMPOUND 61 and vehicle application. Extracellular recordings of single hippocampal neuron spikes were made with five-barrel glass microelectrodes (5B120F-6, World Precision Instruments Inc., Sarasota, Fla., USA) with a tip diameter of 10-12 μm. The individual barrels were filled with 5 M NaCl (recording), 400 mM NaCl (current balancing), 10 mM COMPOUND 61 in 200 mM CH3SO3^- Na^+ (pH 4.7), 200 mM CH3SO3^- Na^+ (pH 4.7, Vehicle), and the last barrel was filled with the AMPA. Experiments were performed on hippocampal neurons (A=5.5-6.5 mm, L=1.5-2.0 mm, H=2.0-3.0 mm, according to Paxinos & Watson, 1986). Neuronal spike activity was evoked by iontophoretic application of AMPA for periods of 10 to 15 s with 1.5 min intervals. Single neuron spike activity was amplified 5000 times with a bandwidth of 0.3 and 3 kHz (CyberAmp 320 with a Al 402 x50 smartprobe, Axon Instruments, California, USA). On-line and off-line analyses were performed by the Spike2 program with a 1401 plus interface (Cambridge Electronic Design Limited, England). The computer program also recorded mean arterial blood pressure and monitored and controlled iontophoretic application. AMPA was ejected into hippocampus in regular cycles of 100-105 s. […] Recording of neuronal spike activity was continued for at least 45 min after intravenous injection. The PAM reactivity was tested by microiontophoretic application of COMPOUND 61 (20 nA, FIG.).

| SMILES | reversibility of the potentiation [1] | potentiation of the current induced by application of 30 μM AMPA ([1]; compound 10 μM) | persistence of the effect after wash out ([1]; compound 3 μM) | potentiation of the current induced by application of 30 μM AMPA ([1]; compound 3 μM) | onset of the enhancement after i.v. administration [2] | AMPA evoked spike activity ([2]; rat hippocampus) |
| --- | --- | --- | --- | --- | --- | --- |
| Cc1cc2c(cc1-c1ccccn1)S(=O)(=O)NC(C1CCCCC1)N2 (stereo not shown) [Compound 111, 3-Cyclohexyl-6-methyl-7-(2′-pyridyl)-1,2,3,4-tetrahydro-1,2,4-benzothiadiazine-1,1-dioxide] | reversible | potentiated | – | – | – | – |
| O=S1(=O)NC(C2CCCCC2)Nc2ccc(S(=O)(=O)N3CCCCC3)cc21 (stereo not shown) [Compound 56, 3-Cyclohexyl-7-piperidinosulfonyl-1,2,3,4-tetrahydro-1,2,4-benzothiadiazine-1,1-dioxide] | reversible | – | persits for several minutes after wash out | potentiated | approximately 10 min | enhancement |
